Assay [1] has as its system guinea pig red blood cells (RBC). Briefly: RBC aggregation under dynamic (rocking) conditions. Format: cell-based. How it is done:
(§1) Guinea pig RBC (Colorado Serum Company) were washed with PBS three times. 50 μl of RBC suspension (1%) was mixed 1:1 with 50 μl of 4×10^8 cfu of type 1 fimbriated bacteria in a glass plate in the absence and presence of 1% αmm and continuously mixed by gently rocking at ˜2-3 s^−1. The aggregation of RBC was visually scored and the time at which noticeable aggregation was observed and reported in minutes (min). In some experiments, bacterial cells were first pre-incubated for 5 min with 67 μg/ml of mAbs in the glass plate and then mixed with RBC suspension in the absence and presence of 1% αmm. RBC rosette-formation assay under was performed by mixing equal amounts of serially diluted bacterial sus-pensions (starting from OD540 nm 1.0) and a 1% suspension of RBC in U-bottom microtiter plate wells as described previously.
(§2) Finally, we compared cell binding ability of the FimH-expressing bacteria under static and dynamic conditions by using two classical set-ups with agglutination of guinea pig red blood cells (RBC)—the model cells for type 1 flmbriae-mediated bacterial adhesion. In the static assays, different dilutions of bacteria were combined with a suspension of RBC in U-shaped microtiter wells and allowed to settle without shaking. […]

In a further assay the test system is HRP. The format is binding. Conditions: fimbriae pre-treated with mAb824. The method, then:
The assays were performed as described previously. In brief. 96-well microtiter plates were coated overnight with purified type 1 fimbriae in 0.02 M NaHCO3 buffer at pH 9.6 (0.1 mg/ml), followed by washes and quenching with 0.2% BSA in PBS. The immobilized fimbriae were incubated with HRP at a concentration of 50 μg/ml for 1 h in the absence or presence of 1% mannose. After extensive washing with PBS, bound horseradish peroxidase was detected by adding 100 μl of TMB substrate (Kirkegaard and Perry Laboratories, KPL) and absorbance was read at 650 nm. […] All incubations, unless stated otherwise, were performed at 37 C. The colorimetric reaction was developed in the presence of TMB substrate at RT and absorbance was read at 650 nm.

In a further assay the test system is mAb21. The assay is described as follows: mAb21 binding time course to immobilized fimbriae and three-state model. Conditions: for mAb21 binding over time course: absence of mannose, 10 sec to 2 hours; for keq ± SEM: Keq=kact/kdeact; for time to 50% of the maximal optical density (OD50) of mAb21 binding: presence of soluble mannose. How it is done:
The assays were performed as described previously. In brief. 96-well microtiter plates were coated overnight with purified type 1 fimbriae in 0.02 M NaHCO3 buffer at pH 9.6 (0.1 mg/ml), followed by washes and quenching with 0.2% BSA in PBS. The immobilized fimbriae were incubated with HRP at a concentration of 50 μg/ml for 1 h in the absence or presence of 1% mannose. After extensive washing with PBS, bound horseradish peroxidase was detected by adding 100 μl of TMB substrate (Kirkegaard and Perry Laboratories, KPL) and absorbance was read at 650 nm. […] After the incubation for indicated time, the plates were washed extensively with PBS and FimH-mAb21 complexes were detected using HRP-conjugated goat anti-mouse antibody (Sigma-Aldrich, diluted 1:3000). All incubations, unless stated otherwise, were performed at 37 C. The colorimetric reaction was developed in the presence of TMB substrate at RT and absorbance was read at 650 nm.
For our modeling, we made the following definitions and assumptions.
To estimate kmAb21, we assumed that LD^A27V-PD^FocH is essentially all in HAS in the presence of mannose, so we fit high time-resolution data with a saturable binding model,
We then estimated kact and kdeact for all four variants in the presence and absence of mannose by fitting this model to the data by minimizing the least square error between the model and data points divided by the value of the data. Parameters were estimated independently for the data from each day the experiment was performed, to provide multiple values of each constant.
There were two limitations to using this model to estimate these parameters. […] Second, in two additional conditions—LD^wt-PD^wt in the presence of mannose and LD^A27V-PD^wt in the absence of mannose, a wide range of values of the rate constants produced the same fitting error. To identify a lower bound for the rate constants, we fit kact while holding kdeact constant over a wide range of values and observed that the error was high for low rates but reached a plateau at higher rates. We identified the lowest kdeact and corresponding kact values at which the error was no more than 10% that of all higher values. Throughout this plateau, Keq=kact/kdeact remained within a tight and reproducible range, so was well-determined by the model. For these two conditions, the lower bounds for the two kinetic constants and the upper and lower bound for the equilibrium constants are reported in Table 8.
For the remaining five conditions, the rate constants as well as equilibrium constants were reproducible for a wide range of initial guesses, and between replicate experiments, so we consider these to be reliable. […] These values were consistent with the estimated bounds and are also reported in FIGS. 20C and 20D for illustration.

Assay [2] concerns guinea pig red blood cells (RBC). The assay is described as follows: RBC agglutination (rosette) under static conditions. Format: cell-based. How it is done: as §1, §2
Assay [3] deals with FimH^wt (FimH adhesin of E. coli K12) (Escherichia coli K12) (UniProt P08191). Briefly: cell-based or functional assay.
Assay [4] concerns the target FimH^FocH (Escherichia coli K12; Escherichia coli) (UniProt P08191). The assay is described as follows: cell-based or functional assay.
Assay [5] has the same target. The assay is described as follows: ELISA, mAb824 on FimH^FocH fimbriae, with 1% αmm.
Assay [6] addresses FimH^wt (FimH adhesin of E. coli K12) (Escherichia coli K12) (UniProt P08191). Briefly: ELISA, mAb824 on FimH^wt fimbriae, without αmm. A general note: ELISA stands for enzyme-linked immunosorbent assay.
In assay [7] the target is FimH^FocH (Escherichia coli K12; Escherichia coli) (UniProt P08191). Briefly: ELISA, mAb824 on FimH^FocH fimbriae, without αmm.
In assay [8] the target is FimH^wt (FimH adhesin of E. coli K12) (Escherichia coli K12) (UniProt P08191). The assay is described as follows: ELISA, mAb824 on FimH^wt fimbriae, with 1% αmm.
The next assay deals with RNase B. Briefly: BLI kinetics of FimH fimbriae binding to RNase B. More on the design: species or system bovine. Conditions: RNAseB binding. How it is done: To test the kinetics of fimbriae binding to RNase B, streptavidin-coated biosensors (SA, FortéBio) were first allowed to bind biotinylated RNase B (applied at a concentration of 10-20 μg/ml in 0.2% BSA HBS). […] The dissociation of the fimbriae-RNase B complexes was conducted in 0.2% BSA HBS. The binding sensorgrams after single reference subtraction (biosensors with 0.2% BSA HBS, or Fab824, respectively) were used for global fitting. […] The standard error that was given in the table for the kinetic parameters relates to the “fit” of the data to the model.
For orientation: In BLI a coated tip is dipped into the sample, and binding shifts an interference pattern.

The next assay deals with guinea pig RBC. The assay is described as follows: Red blood cell (RBC) aggregation by bacteria under rocking (Example 1). The format is cell-based. How it is done: Guinea pig RBC (Colorado Serum Company) were washed with PBS three times. 50 μl of RBC suspension (1%) was mixed 1:1 with 50 μl of 4×10^8 of type 1 fimbriated bacteria in a glass plate in the absence and presence of 1% αmm and continuously mixed at high speed on rotator (Model 260300F, Fisher Scientific) for extended period of time. The aggregation of RBC was visually scored and the time at which noticeable aggregation was observed and reported in minutes (min). In some experiments, bacterial cells were first pre-incubated for 5 min with 67 μg/ml of mAbs in the glass plate and then mixed with RBC suspension in the absence and presence of 1% αmm.

In a further assay the test system is fimbrial FimH. Briefly: mAb21 ELISA on fimbriae after αmm / Fab824 pre-treatment. Conditions: FimH^wt pre-treated with PBS only. The format is binding, Escherichia coli. An excerpt: Bound antibodies were detected with a 1:5,000 diluted HRP-conjugated goat anti-mouse Fc antibody (Sigma-Aldrich). […] Binding of the latter antibody was detected using 1:5,000 diluted HRP-conjugated streptavidin (Invitrogen).

The test system of a further assay is yeast mannan. The assay is described as follows: FimH-dependent bacterial adhesion to yeast mannan (Example 7). The format is cell-based. To be noted: 1% mannose. How it is done: FimH-dependent bacterial adhesion was analyzed as described previously. Briefly, Immulon 4HBX microtiter plates (Thermo Electron Corp.) were coated with 20 μg/mL of yeast mannan and plates were quenched with 0.2% BSA in PBS. Bacterial suspensions in PBS (OD540=2) were added to each well in a volume of 100 μl and incubated for 1 h at 37° C. After extensive washing, bound bacteria were stained with 0.1% (vol/vol) crystal violet for 20 min at room temperature and were washed several times with water. Then 100 μl of 50% (vol/vol) ethanol was added to each well, and the absorbance at a wavelength of 600 nm was measured. For inhibition, bacterial binding was tested in the presence of 1% mannose.

Assay [9] has as its target horseradish peroxidase (HRP) (horseradish) (UniProt P00433). The assay is described as follows: time course of soluble HRP on fimbriae pre-treated with mAb824.
The next assay addresses T1, asialofetuin (UniProt P12763 19-359, oligosaccharides with terminal galactose (beta1-3)).
T1 construct: also called asialated fetuin
T1 sequence (looked up): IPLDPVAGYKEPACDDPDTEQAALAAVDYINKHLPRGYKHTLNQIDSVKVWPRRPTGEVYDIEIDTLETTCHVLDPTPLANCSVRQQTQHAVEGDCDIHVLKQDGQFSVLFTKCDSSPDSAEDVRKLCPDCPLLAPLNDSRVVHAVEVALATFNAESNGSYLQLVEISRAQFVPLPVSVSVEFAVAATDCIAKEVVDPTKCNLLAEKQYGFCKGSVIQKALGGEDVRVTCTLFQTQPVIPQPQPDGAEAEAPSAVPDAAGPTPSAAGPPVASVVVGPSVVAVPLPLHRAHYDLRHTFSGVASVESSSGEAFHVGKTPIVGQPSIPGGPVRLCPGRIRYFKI
Briefly: adhesion of bacteria expressing the FmlH variant to surface-coated asialofetuin, crystal violet, absorbance 600 nm.

Broadly, the EC50 (read off the curve) is the concentration that produces a half-maximal response. High values mean weaker potency, low ones greater potency.

Sequence of horseradish peroxidase (HRP) (horseradish) (P00433 31-338): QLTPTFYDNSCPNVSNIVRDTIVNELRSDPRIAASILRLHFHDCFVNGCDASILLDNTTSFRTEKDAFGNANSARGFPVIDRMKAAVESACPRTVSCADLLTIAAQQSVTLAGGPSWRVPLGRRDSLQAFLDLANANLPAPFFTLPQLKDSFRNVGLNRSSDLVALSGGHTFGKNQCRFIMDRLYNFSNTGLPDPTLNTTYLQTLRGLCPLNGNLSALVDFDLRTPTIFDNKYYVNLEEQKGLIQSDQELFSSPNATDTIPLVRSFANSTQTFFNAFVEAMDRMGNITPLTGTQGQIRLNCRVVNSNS
Description for asialofetuin: Briefly, Immulon 4HBX microtiter plates (Thermo Electron Corp.) were coated with 20 μg/mL of asialofetuin (Sigma-Aldrich) and plates were quenched with 0.2% BSA in PBS. Bacterial suspensions in PBS (OD540=2) were added to each well in a volume of 100 μl and plates were spun for 2 min at 750×g. After extensive washing, bound bacteria were stained with 0.1% (vol/vol) crystal violet for 20 min at room temperature and were washed several times with water. Then 100 μl of 50% (vol/vol) ethanol was added to each well, and the absorbance at a wavelength of 600 nm was measured. For inhibition, bacterial binding was tested in the presence of 1% galactose (Sigma).
Briefly, Immulon 4HBX microtiter plates (ThermoFisher Scientific) were coated with 20 μg/mL of asialofetuin (Sigma-Aldrich) and plates were quenched with 0.2% BSA in PBS. Bacterial suspensions in PBS (OD540=2) were added to each well in a volume of 100 μl and plates were spun for 2 min at 750×g. After extensive washing, bound bacteria were stained with 0.1% (vol/vol) crystal violet for 20 min at room temperature and were washed several times with water. Then 100 μl of 50% (vol/vol) ethanol was added to each well, and the absorbance at a wavelength of 600 nm was measured. For inhibition, bacterial binding was tested in the presence of 1% galactose (Sigma).

For “LD^wt-PD^wt: naturally-occurring FimH from fecal E. coli strain F18, evolutionary wild-type”, the “Minimal IC of mannose” value in [1] was “.1%”. Also, the “binding of HRP in complex with mAb824” value in the assay on HRP is “remained very weak”. Moreover, in the assay on mAb21, the “mAb21 binding over time course” value is on record as “No reliably measurable binding” and the “time to 50% of the maximal optical density (OD50) of mAb21 binding” value was around 30 min. In the assay with mAb21 (mannose presence), the “kact ± SEM” value was >2.0 × 10^−4, the “kdeact ± SEM” value is >8.5 × 10^−2 and the “keq ± SEM” value is reported as 1.7 × 10^−2 to 2.3 × 10^−2. Also, the “mAb21 binding to fimbriae” value in the assay with mAb21 (presence of 1% alpha-methyl-mannoside, 1 h) is given as “somewhat lower”. The “RBC binding / rosette formation” value in [2] was “could not bind RBC at any concentration”.

Turning to mAb824 (antibody), the RBC agglutination: time (in min) upon which noticeable aggregation of RBC was observed in assay [3] and in assay [4] was above 60 min throughout. Also, the EC50 (read off the curve) in assay [5], in [6], in assay [7] and in assay [8] was 0.02 nM throughout.

Consider “FimH^wt: 'wild-type' FimH adhesin from E. coli K12; b242: K12 and J96 express LD^A27V-PD^wt”, for which, in [1], the “Minimal IC of mannose” value is “.1%”. For the same molecule, in the assay with RNase B, the “koff higher relative to FimH^FocH” value is given as around 1000 fold, the “kon higher relative to FimH^FocH” value is on record as around 50 fold and the “lower affinity relative to FimH^FocH” value is reported as around 10 fold. The “binding of HRP in complex with mAb824” value in the assay with HRP is recorded as “remained very weak”. In addition, in the assay on mAb21, the “mAb21 binding over time course” value is “only marginal at the later time points” and the “time to 50% of the maximal optical density (OD50) of mAb21 binding” value is reported as around 3 min. Further, in the assay with mAb21 (mannose absence), the “kact ± SEM” value was >8.8 × 10^−5, the “kdeact ± SEM” value is >2.3 × 10^0 and the “keq ± SEM” value is on record as 1.5 × 10^−3 to 4.0 × 10^−3. Besides, in the assay on mAb21 (mannose presence), the “kact ± SEM” value is recorded as 3.4 × 10^−3 ± 0.4 × 10^−3, the “kdeact ± SEM” value is given as 8.7 × 10^−3 ± 1.7 × 10^−2 and the “keq ± SEM” value is on record as 3.9 × 10^−1 ± 0.9 × 10^−1. Further, in the assay on guinea pig RBC (mAb824 pre-incubation (67 μg/ml)), the “Time upon which noticeable aggregation of RBC was observed” value is reported as above 60 min. Besides, the “Time upon which noticeable aggregation of RBC was observed” value with guinea pig RBC (αmm (1%)) is on record as above 60 min. The “RBC binding / rosette formation” value in [2] is “only at a relatively high concentration (low titer) of bacteria”.

On to α-methyl-D-mannopyranoside [αmm], for which, in the assay with fimbrial FimH, the “αmm concentration at plateau of mAb21 binding” value is given as 0.1-1.0 % αmm. Further, in the assay on yeast mannan, the “inhibition of bacterial adhesion to yeast mannan-coated surface” value is listed as above 95%.

For FimH^FocH (from UniProt P08191 22-300), the fold decrease in the rate of binding with mAb824 against untreated in [9] was above 10 fold.

B1: FmIH^wt (full-length wild-type FmlH adhesin) (other, Escherichia coli CFT073)
chain: FSCNVDGGSSIGAGTTSVYVNLDPVIQPGQNLVVDLSQHISCWNDYGGWYDTDHINLVQGSAFAGSLQSYKGSLYWNNVTYPFPLTTNTNVLDIGDKTPMPLPLKLYITPVGAAGGVVIKAGEVIARIHMYKIATLGSGNPRNFTWNIISNNSVVMPTGGCTVDSRNVTVDLPDFPGSAEIPLGVYCSSEQKLSFYLSGATTDSSRQVFANTAPDATKASGVGVTLMRNGKILATGENVSLGTVNKSKVPLGLSATYGQTGNKVSAGTVQSVIGVTFIYE
notes: domain: pilin domain; Expressed on bacteria in the type 1 fimbrial background
For the molecule B1, in the assay with asialofetuin, the binding result is recorded as “no binding”.

The record behind these values is patent US20240165214A1, “COMPOSITIONS AND METHODS FOR STABILIZATION OF ALLOSTERIC PROTEINS” (priority 2021, published 2024).
